From US20200002354A1, “HEXAHYDROPYRAZINOBENZ- OR -PYRIDO-OXAZEPINES CARRYING AN OXYGEN-CONTAINING SUBSTITUENT AND USE THEREOF IN THE TREATMENT OF 5-HT2C-DEPENDENT DISORDERS” (AbbVie Deutschland GmbH & Co. KG, priority 2015, published 2020) come the findings set out here.

The target of one data set is T1, human 5-HT2A receptor (Homo sapiens, UniProt P28223).
T1 construct: expressed in transfected cells; host or cells: CHO-K1
As to the kind of experiment: Human 5-HT2A functional assay (calcium mobilisation in CHO-K1 cells, FLIPR). To be noted: based on agonism: EC50 5-HT2A/EC50 5-HT2C. In kind it is cell-based. The method, then:
2. Human 5-HT2A Functional Assay
Functional activity on the 5-HT2A receptor was determined by testing the effect of the compounds I on calcium mobilisation in CHO-K1 cells, stably transfected with human 5-HT2A receptor. Cells were seeded into sterile black 384-well plates with clear bottom at 25,000 cells/well in a volume of 25 μl and grown for 5-6 hours at 37° C., in 5% CO2 in tissue culture medium (“Ultra CHO” by LONZA), containing 1% dialysed FCS and 50 μg/ml gentamicin (Invitrogen). After this incubation, medium was replaced by a serum free version of the same tissue culture medium followed by incubation overnight at 37° C. and in 5% CO2. Cells were then loaded with a fluorescent calcium-sensitive dye in the presence of 0.07% probenecid for an hour at 37° C., according to the manufacturer's protocol (Ca5-Assay Kit, Molecular Devices), followed by an additional 60 min incubation at room temperature. Serial compound dilutions (final concentrations of 10^−10 to 10^−5M, prepared in HBSS+50 mM HEPES) were first added to the cells alone (“first addition” to assess agonism on the 5-HT2A receptor), then after 8 min, serotonin was added to the same wells at a final concentration of 3×10^−8 M (“second addition” to see potential antagonistic effect) and the maximal calcium response was determined using a FLIPR® Tetra instrument (Molecular Devices) in each of the two steps. The relative efficacy of the compounds was calculated as a percentage of the maximal effect induced by serotonin alone (defined as 100%). To determine EC50/IC50 values, concentration-response curves were fitted using a four-parameter logistic equation (IDBS Biobookml). Kb values were calculated from IC50 values, according to Cheng & Prusoff
A general note: A change in cytosolic calcium serves as a functional read-out for many receptors and channels.

The next data set addresses T2, 5-HT2C receptor (Homo sapiens, UniProt P28335).
T2 construct: host or cells: U2OS
Description: Human 5-HT2C functional assay (beta-arrestin2 recruitment, U2OS_HTR2C_β-Arrestin cells). In kind it is cell-based. As to conditions: for EC50: Potency (EC50 5-HT2C) in functional assay, agonism, read-out: EC50 5-HT2C; for Emax: relative efficacy vs maximal effect induced by 5-HT (defined as 100%). Here is the method: 1. Human 5-HT2C Functional Assay
The functional activity of compounds of formula I was assayed by incubation with U2OS_HTR2C_β-Arrestin cells (DiscoverX, 93-0289C3) to induce beta-arrestin2 recruitment to the 5-HT2C receptor. The agonist-induced recruitment and proximity of the receptor and beta-arrestin2 leads to complementation and formation of active β-galactosidase. The enzyme complementation results in enzyme activity, which is measured following the termination of the agonist incubation using DiscoveRx's detection reagent, which contains a chemiluminescent substrate which produces a high intensity signal. Cells were plated and a medium-change to a 1% serum containing medium was performed 24 h later. The next day, test compounds were added and incubated for 1.5 h before addition of detection reagent.
The response produced was measured and compared with the response produced by 10 [mu]M 5-HT or the maximal effect induced by 5-HT (defined as 100%) to which it was expressed as a percentage response (relative efficacy).
(Arrestin recruitment assays detect the binding of arrestin to an activated receptor.)

In a further data set the target is T3, human 5-HT2B receptor (Homo sapiens, UniProt P41595).
T3 construct: expressed in transfected cells; host or cells: CHO-FlpIn
T3 sequence (P41595 whole entry): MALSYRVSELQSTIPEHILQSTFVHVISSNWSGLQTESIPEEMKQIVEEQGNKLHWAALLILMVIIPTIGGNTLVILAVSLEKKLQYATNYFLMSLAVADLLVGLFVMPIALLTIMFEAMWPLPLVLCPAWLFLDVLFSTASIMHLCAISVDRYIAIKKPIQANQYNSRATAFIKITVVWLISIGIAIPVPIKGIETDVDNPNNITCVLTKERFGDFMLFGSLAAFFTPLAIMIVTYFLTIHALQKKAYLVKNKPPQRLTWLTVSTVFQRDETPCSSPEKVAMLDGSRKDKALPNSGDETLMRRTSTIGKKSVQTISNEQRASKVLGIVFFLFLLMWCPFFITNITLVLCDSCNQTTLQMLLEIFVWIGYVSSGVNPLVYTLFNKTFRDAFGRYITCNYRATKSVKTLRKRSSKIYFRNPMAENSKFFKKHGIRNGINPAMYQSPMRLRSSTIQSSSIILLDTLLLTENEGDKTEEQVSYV
Description: Human 5-HT2B functional assay (calcium mobilisation in CHO-FlpIn cells, FLIPR). The class given is cell-based. To be noted: based on agonism: EC50 5-HT2B/EC50 5-HT2C. Here is the method: 3. Human 5-HT2B Functional Assay
Functional activity on the 5-HT2B receptor was determined by testing the effect of the compounds I on calcium mobilisation in CHO-FlpIn cells, stably transfected with human 5-HT2B receptor. Cells were seeded into sterile black 384-well plates with clear bottom at 30,000 cells/well in a volume of 25 μl and grown overnight at 37° C., in 5% CO2 in tissue culture medium (“CHO-S-SFM II” by Invitrogen), containing 1% dialysed FCS and 50 μg/ml gentamicin (Invitrogen). On the next morning, medium was replaced by a serum free version of the same tissue culture medium for a further incubation for 4 hours at 37° C. and in 5% CO2. Cells were then loaded with a fluorescent calcium-sensitive dye in the presence of 0.07% probenecid for an hour at 37° C., according to the manufacturer's protocol (Ca5-Assay Kit, Molecular Devices), followed by an additional 60 min incubation at room temperature. Serial compound dilutions (final concentrations of 10^−10 to 10^−5M, prepared in HBSS+50 mM HEPES) were first added to the cells alone (“first addition” to assess agonism on the 5-HT2B receptor), then after 8 min, serotonin was added to the same wells at a final concentration of 10^−8 M (“second addition” to see potential antagonistic effect) and the maximal calcium response was determined using a FLIPR® Tetra instrument (Molecular Devices) in each of the two steps. The relative efficacy of the compounds was calculated as a percentage of the maximal effect induced by serotonin alone (defined as 100%). To determine EC50/IC50 values, concentration-response curves were fitted using a four-parameter logistic equation (IDBS Biobookml). Kb values were calculated from IC50 values, according to Cheng & Prusoff

Data set [1] in a line: Metabolic stability in human liver microsomes, unbound intrinsic clearance. The class given is in vitro ADME. As to conditions: liver microsomes, pH 7.4; unbound intrinsic clearance (human); Clint unbound = Cl int/fu mic; read-out: Cl int, mic unb. (h). The method, then:
Samples of the tested compounds (0.5 μM) were preincubated together with human liver microsomes (0.25 mg of microsomal protein/mL) in 0.05 M potassium phosphate buffer of pH 7.4 in microtiter plates at 37° C. for 5 minutes. The reaction was started by adding NADPH (1.0 mM). After 0, 5, 10, 15, 20 and 30 minutes, an aliquot was removed, the reaction was cooled and stopped by adding twice the amount of quench solution consisting of acetonitrile/methanol 1:1, and containing 0.2 μM carbutamide as internal standard. The samples were frozen until analyzed. The remaining concentration of undegraded test substance was determined by liquid chromatography-tandem mass spectrometry (LC-MS/MS). The half-life (t1/2) was determined from the gradient of the ratio of the signal of (test substance/internal standard)/unit time plot, allowing the calculation of the half-life of the test substance, assuming first order kinetics, from the decrease in the concentration of the compound with time. The microsomal clearance (mClint) was calculated as follows: mClint=((ln(2)/t ½)/Microsomal Protein Concentration (mg/ml))*1000, leading to the unit of uL/min/mg. The scaled clearance (mClin_scaled) was calculated as mCLint_scaled=m CLint*(Microsomal Yield (mg/kg BW))/1000000*60, leading to the units L/h/kg. The Microsomal Yield is defined by the specifics of the used microsomes. Calculations were modified from references: Di, The Society for Biomolecular Screening, 2003, 453-462; Obach, D M D, 1999 vol 27. N 11, 1350-1359.
Calculation of Unbound Intrinsic Clearance
C1int unbound=C1 int/fu mic
A general note: Microsomes from liver hold many membrane-bound enzymes, among them those of drug oxidation.

Structures are written as SMILES.

T1 sequence (P28223 whole entry): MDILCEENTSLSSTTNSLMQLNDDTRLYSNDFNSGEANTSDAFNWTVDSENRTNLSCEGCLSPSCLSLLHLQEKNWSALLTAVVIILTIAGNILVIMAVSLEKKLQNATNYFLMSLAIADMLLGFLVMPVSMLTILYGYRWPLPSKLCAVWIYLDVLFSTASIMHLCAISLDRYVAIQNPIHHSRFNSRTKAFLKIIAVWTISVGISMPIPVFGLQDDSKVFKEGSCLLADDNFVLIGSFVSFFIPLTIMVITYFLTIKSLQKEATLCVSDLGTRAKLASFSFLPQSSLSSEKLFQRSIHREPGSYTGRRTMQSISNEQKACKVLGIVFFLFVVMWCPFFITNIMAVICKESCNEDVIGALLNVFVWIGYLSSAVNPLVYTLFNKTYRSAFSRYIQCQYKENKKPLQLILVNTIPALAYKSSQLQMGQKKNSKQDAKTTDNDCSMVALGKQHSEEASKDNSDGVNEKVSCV
T2 sequence (P28335 33-458): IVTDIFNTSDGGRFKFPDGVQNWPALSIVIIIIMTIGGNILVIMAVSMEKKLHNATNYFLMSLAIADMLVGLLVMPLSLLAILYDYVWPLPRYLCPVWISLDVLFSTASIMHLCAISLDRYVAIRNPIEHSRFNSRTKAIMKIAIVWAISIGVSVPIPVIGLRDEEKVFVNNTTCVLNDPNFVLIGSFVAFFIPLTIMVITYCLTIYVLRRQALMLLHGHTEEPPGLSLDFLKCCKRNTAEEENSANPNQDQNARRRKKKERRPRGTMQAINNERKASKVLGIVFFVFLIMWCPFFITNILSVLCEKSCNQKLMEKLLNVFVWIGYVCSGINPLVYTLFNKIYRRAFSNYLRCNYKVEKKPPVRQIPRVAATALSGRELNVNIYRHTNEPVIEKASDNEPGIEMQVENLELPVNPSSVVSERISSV
T2 sequence (P32121 whole entry partner): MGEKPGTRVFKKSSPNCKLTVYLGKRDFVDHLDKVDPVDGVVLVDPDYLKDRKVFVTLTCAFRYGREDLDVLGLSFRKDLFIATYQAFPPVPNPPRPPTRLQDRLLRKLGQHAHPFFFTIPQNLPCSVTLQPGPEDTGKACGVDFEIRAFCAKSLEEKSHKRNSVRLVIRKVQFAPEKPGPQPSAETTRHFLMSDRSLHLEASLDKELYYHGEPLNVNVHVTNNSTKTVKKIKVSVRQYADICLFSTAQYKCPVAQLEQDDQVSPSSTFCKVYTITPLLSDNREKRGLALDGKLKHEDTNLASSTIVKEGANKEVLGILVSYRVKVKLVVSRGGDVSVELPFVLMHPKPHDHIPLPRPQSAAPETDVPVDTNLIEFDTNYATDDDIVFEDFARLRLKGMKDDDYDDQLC

Broadly, the EC50 is the concentration needed to bring the measured effect to its halfway point. As usually defined, the Emax is the size of the effect at its maximum, as opposed to the concentration needed. For `COC[C@@H]1C[C@@H]2CNCCN2c2cccc(C#N)c2O1.Cl` [Example 12, (4aR,6S)-6-(Methoxymethyl)-2,3,4,4a,5,6-hexahydro-1H-pyrazino[2,1-d][1,5]benzoxazepine-8-carbonitrile hydrochloride], the “Selectivity over 5-HT2A” value on human 5-HT2A receptor was “+++ (>100)”. Further, on 5-HT2C receptor, the EC50 was in the range of 20 to 200 nM and the Emax was above 70%. Besides, the “Selectivity over 5-HT2B” value at human 5-HT2B receptor is recorded as “+ (from 10 to 30)”. Also, the CLint scaled at 0.5 μM in data set [1] was 83.3 to 833 mL/min/kg.

With `COC[C@@H]1C[C@@H]2CNCCN2c2cc(F)cc(C#N)c2O1.Cl` [Example 13, (4aR,6S)-10-Fluoro-6-(methoxymethyl)-2,3,4,4a,5,6-hexahydro-1H-pyrazino[2,1-d][1,5]benzoxazepine-8-carbonitrile hydrochloride], the “Selectivity over 5-HT2A” value on human 5-HT2A receptor is listed as “+++ (>100)”. Also, at 5-HT2C receptor, the EC50 is 20 to 200 nM and the Emax is above 70%. For the same compound, the “Selectivity over 5-HT2B” value at human 5-HT2B receptor is “++ (from >30 to 100)”. For the same compound, the CLint scaled at 0.5 μM in data set [1] was below 83.3 mL/min/kg.

With `COC[C@@H]1C[C@@H]2CNCCN2c2c(F)ccc(Cl)c2O1.O=C(O)/C=C/C(=O)O` [Example 15, (4aR,6S)-8-Chloro-11-fluoro-6-(methoxymethyl)-2,3,4,4a,5,6-hexahydro-1H-pyrazino[2,1-d][1,5]benzoxazepine; fumaric acid], the “Selectivity over 5-HT2A” value on human 5-HT2A receptor is “+++ (>100)”. Further, at 5-HT2C receptor, the EC50 is below 20 nM and the Emax is above 70%. For the same compound, on human 5-HT2B receptor, the “Selectivity over 5-HT2B” value was “+++ (>100)”. Moreover, the CLint scaled at 0.5 μM in data set [1] is below 83.3 mL/min/kg.

Regarding `COC[C@@H]1C[C@@H]2CNCCN2c2c(F)c(F)cc(Cl)c2O1.Cl` [Example 16, (4aR,6S)-8-Chloro-10,11-difluoro-6-(methoxymethyl)-2,3,4,4a,5,6-hexahydro-1H-pyrazino[2,1-d][1,5]benzoxazepine hydrochloride], the “Selectivity over 5-HT2A” value on human 5-HT2A receptor is “+++ (>100)”. In addition, on 5-HT2C receptor, the concentration giving a half-maximal response (EC50) is below 20 nM and the Emax was above 70%. The “Selectivity over 5-HT2B” value at human 5-HT2B receptor is on record as “+++ (>100)”. Further, the CLint scaled at 0.5 μM in data set [1] was below 83.3 mL/min/kg.

On to `COC[C@@H]1C[C@@H]2CNCCN2c2c(F)c(F)cc(F)c2O1.O=C(O)/C=C/C(=O)O` [Example 18, (4aR,6S)-8,10,11-Trifluoro-6-(methoxymethyl)-2,3,4,4a,5,6-hexahydro-1H-pyrazino[2,1-d][1,5]benzoxazepine; fumaric acid], for which the “Selectivity over 5-HT2A” value at human 5-HT2A receptor is listed as “+++ (>100)”. Moreover, at 5-HT2C receptor, the EC50 is 20 to 200 nM and the Emax was above 70%. In addition, the “Selectivity over 5-HT2B” value on human 5-HT2B receptor is “+++ (>100)”. Also, the CLint scaled at 0.5 μM in data set [1] is below 83.3 mL/min/kg.

For the compound `Cl.[2H]C([2H])([2H])OC[C@@H]1C[C@@H]2CNCCN2c2cc(F)cc(Cl)c2O1` [Example 19, (4aR,6S)-8-Chloro-10-fluoro-6-(trideuteriomethoxymethyl)-2,3,4,4a,5,6-hexahydro-1H-pyrazino[2,1-d][1,5]benzoxazepine hydrochloride], the “Selectivity over 5-HT2A” value at human 5-HT2A receptor is on record as “+++ (>100)”. Besides, on 5-HT2C receptor, the EC50 is below 20 nM and the Emax is above 70%. In addition, the “Selectivity over 5-HT2B” value at human 5-HT2B receptor is reported as “++ (from >30 to 100)”. Further, the CLint scaled at 0.5 μM in data set [1] was below 83.3 mL/min/kg.

In the case of `COC[C@@H]1C[C@@H]2CNCCN2c2c(ccc(F)c2F)O1.Cl` [Example 21, (4aR,6S)-10,11-Difluoro-6-(methoxymethyl)-2,3,4,4a,5,6-hexahydro-1H-pyrazino[2,1-d][1,5]benzoxazepine hydrochloride], the “Selectivity over 5-HT2A” value on human 5-HT2A receptor is listed as “++ (from >30 to 100)”. Besides, at 5-HT2C receptor, the EC50 lay within 20 to 200 nM and the Emax was in the range of 30 to 50%. Moreover, on human 5-HT2B receptor, the “Selectivity over 5-HT2B” value is listed as “++ (from >30 to 100)”. In addition, in data set [1], the CLint scaled at 0.5 μM is below 83.3 mL/min/kg.

In the case of `COC[C@@H]1C[C@@H]2CNCCN2c2cc(F)cc(C(F)(F)F)c2O1.Cl` [Example 22, (4aR,6S)-10-Fluoro-6-(methoxymethyl)-8-(trifluoromethyl)-2,3,4,4a,5,6-hexahydro-1H-pyrazino[2,1-d][1,5]benzoxazepine hydrochloride], on human 5-HT2A receptor, the “Selectivity over 5-HT2A” value is “+++ (>100)”. In addition, on 5-HT2C receptor, the EC50 is below 20 nM and the Emax was above 70%. In addition, the “Selectivity over 5-HT2B” value at human 5-HT2B receptor is “++ (from >30 to 100)”. For the same compound, the CLint scaled at 0.5 μM in data set [1] was below 83.3 mL/min/kg.

As to `Cl.Fc1cc(Cl)c2c(c1)N1CCNC[C@H]1C[C@@H](COC(F)F)O2` [Example 24, (4aR,6S)-8-Chloro-6-(difluoromethoxymethyl)-10-fluoro-2,3,4,4a,5,6-hexahydro-1H-pyrazino[2,1-d][1,5]benzoxazepine hydrochloride], on human 5-HT2A receptor, the “Selectivity over 5-HT2A” value is given as “+++ (>100)”. At 5-HT2C receptor, the EC50 lay within 20 to 200 nM and the Emax lay within 50 to 70%. The “Selectivity over 5-HT2B” value on human 5-HT2B receptor was “++ (from >30 to 100)”. Besides, the CLint scaled at 0.5 μM in data set [1] fell in the range of 83.3 to 833 mL/min/kg.

Regarding `COC[C@@H]1C[C@@H]2CNCCN2c2c(F)c(F)cc(C(F)F)c2O1.Cl` [Example 26, (4aR,6S)-8-(Difluoromethyl)-10,11-difluoro-6-(methoxymethyl)-2,3,4,4a,5,6-hexahydro-1H-pyrazino[2,1-d][1,5]benzoxazepine hydrochloride], the “Selectivity over 5-HT2A” value on human 5-HT2A receptor is “+++ (>100)”. Also, at 5-HT2C receptor, the EC50 is below 20 nM and the Emax was above 70%. In addition, on human 5-HT2B receptor, the “Selectivity over 5-HT2B” value was “+++ (>100)”. Besides, the CLint scaled at 0.5 μM in data set [1] is below 83.3 mL/min/kg.
